Assay results: ChEMBL document CHEMBL1275254 (2010)

Tested on: Burkholderia pseudomallei
Experiment: Antimicrobial activity against Burkholderia pseudomallei Bp227 harboring deleted (bpeAB-oprA)::FRT gene after 24 hrs by broth microdilution method
Type: functional

Q: Which MIC does the source give for GENTAMICIN here?
A: The MIC was 256 µg/mL.
